In patent publication US5437864A, “Method of inhibiting blood coagulation in extracorporeal circulation by inhibiting human tissue factor” (The Scripps Research Institute, priority 1992, dated 1995):
Read-outs that look alike come from different tables or passages of the source. No end group written: not given here.

Columns and labels:
factor VII/VIIa [1] = target: T1, factor VII/VIIa (Homo sapiens, UniProt P08709); test: Inhibition of huTF-initiated coagulation by polypeptide analogs of huTFh; type: biochemical; details: for inhibition of huTF-initiated coagulation, dose-response (FIG. 12): non-lipidated polypeptides, various concentrations
T1 construct: from tissue
T1 sequence (P08709 61-466): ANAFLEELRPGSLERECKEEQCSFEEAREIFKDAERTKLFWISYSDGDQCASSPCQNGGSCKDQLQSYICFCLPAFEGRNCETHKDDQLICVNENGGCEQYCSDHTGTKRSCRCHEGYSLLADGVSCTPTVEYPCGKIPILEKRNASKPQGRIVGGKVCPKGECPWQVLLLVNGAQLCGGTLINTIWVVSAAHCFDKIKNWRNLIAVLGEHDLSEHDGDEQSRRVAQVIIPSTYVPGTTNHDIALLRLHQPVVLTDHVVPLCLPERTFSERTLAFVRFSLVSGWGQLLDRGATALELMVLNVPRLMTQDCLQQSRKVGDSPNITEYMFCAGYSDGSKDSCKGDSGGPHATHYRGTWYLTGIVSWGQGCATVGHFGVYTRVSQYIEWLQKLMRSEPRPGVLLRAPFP
Method: The ability of the polypeptides of the present invention to inhibit huTF-initiated coagulation were assayed by first incubating the polypeptides in the presence of factor VII/VIIa and calcium ions, and then adding this mixture to factor VII/VIIa-deficient plasma and evaluating clotting times.
Human factor VII/VIIa was isolated as described in Example 3. Ten microliters of a solution of 200 ng of this isolated factor VII/VIIa per ml of HBS/BSA was added to a solution comprising 100 ul of HBS, 20 ul of 25 mM CaCl2, and with 100 ul of TBS/Triton containing synthetic polypeptide. Numerous admixtures were so prepared which contained varying concentrations of the polypeptide and were then maintained at 37 degrees C. for 15 minutes. Relipidated tissue factor prepared as described in Example 4 was diluted in HBS/BSA such that 10 ul would yield a coagulation time of approximately 45 seconds when tested in the coagulation assay described in Example 2. The above maintained admixture was further admixed with this 10 ul dilution of relipidated huTF, with 100 ul of 25 mM CaCl2, and with 100 ul of factor VII/VIIa-deficient plasma (George King Bio-Medical, Inc., Overland Park, Kans.) diluted 1 part plasma to 1.5 parts HBS. The clotting time was then determined and plotted as described in Example 2. A prolongation of clotting time was taken to indicate inhibition of coagulation by the synthetic polypeptide. Percent inhibition was calculated as described in Example 10. Polypeptides producing at least a 30% inhibition of coagulation were considered huTFh binding site polypeptide analogs, i.e., polypeptides p26-49, p146-167 and p161-189 as shown in section I of Table 4.
Lipidated synthetic peptides were prepared in the manner described in Example 4 for relipidation of isolated huTF except that synthetic polypeptide was substituted for isolated huTF. The ratio 52 to 1 of lipid to polypeptide (w/w) was routinely utilized. Lipidated polypeptides producing at least 30% inhibition of coagulation were considered huTFh binding site polypeptide analogs, when present in lipidated form, i.e., those polypeptides shown in section II of Table 4.
The results of this study are shown in FIG. 12 and indicate that p24-35 and p152-169 are capable of inhibiting 45% and 25% respectively, of the huTF-initiated coagulation when utilized at 10 uM concentrations. It should be noted that in this study background inhibitions such as for those peptides indicated by a closed circle in FIG. 12 were lower than the study shown in Table 4. As a result, polypeptides producing at least a 20% inhibition of coagulation at a concentration of 10 uM in this study were considered huTF binding site polypeptide analogs.

factor VII/VIIa [2] = target: T1, factor VII/VIIa; test: Inhibition of factor X activation on J82 cells by huTFh polypeptides; type: cell-based; details: for Optical Density: O.D. at 405 nm of factor Xa chromogenic product, 50 ul polypeptide solution at 100 uM, PBS control 0.960, no factor VII 0.005, significant if about 0.500 or less
Method: Fifty microliters (ul) of a solution containing a huTF polypeptide analog at 100 uM […] in TBS was added to each well of a 96-well of a 96-well flat bottom polystyrene assay plate. Then to each well was admixed 25 ul of a solution containing factor VII/VIIa isolated as described in Example 3 at a concentration of 1 nm in TBS, further admixed with 25 ul of 20 mM calcium chloride in TBS and the resulting admixture is maintained at room temperature for 30 minutes.
Human bladder cell carcinoma J82 cells were obtained from the American Type Culture Collection (ATCC HTB 1; Rockville, Md.) and cultured as described by Fair et al., J. Biol. Chem., 262:11692-11698 (1987) which methods are incorporated herein by reference.
5×10^4 J82 cells are suspended into 50 ul of TBS and admixed to each well of the polystyrene assay plate after the above maintenance period. Immediately thereafter 25 ul of factor X, isolated as described by Fair et al., J. Biol. Chem., 262:11692-11698 (1987), at a concentration of 100 nM in TBS and 50 ul of Xa chromogenic substrate S-2222 (1 mg/ml in TBS) were admixed, and the resulting admixture was maintained for two minutes at room temperature to form a chromogenic reaction product containing solution.
The amount of chromogenic product formed was quantitated by measuring the amount of optical density (O.D.) at 405 nanometers (nm) using a V-max 96 well spectrophotometer (Molecular Devices, Mountain View, Calif.). Controls with PBS in place of polypeptide or with no factor VII added were also run to establish the maximum and minimum possible O.D. values.

TF = details: Pitlick, J. Clin. Invest., 55:175 (1975); cited from earlier work
baboon TF = details: Taylor et al., J. Clin. Invest. (1987); cited from earlier work
[3] = non-phospholipidated peptides, 10 μM, read-out: Inhibition (Percent Inhibition of huTF-initiated coagulation)
[4] = non-phospholipidated peptides, 10 μM
[5] = Example 17 study (FIG. 12), non-lipidated, 10 uM, read-out: inhibition of huTF-initiated coagulation
[6] = phospholipidated peptides, 10 μM, read-out: Inhibition (Percent Inhibition of huTF-initiated coagulation)
[7] = phospholipidated peptides, 10 μM

Row | Substance | inhibition at 10 µM (factor VII/VIIa [1]; [3]) [%] | Optical Density (factor VII/VIIa [2]) | further results
1 | H-QAVIPSRTVNRKSTDSPVEC-OH [p190-209] | 20 | 0.625 ± 0.031 | –
2 | p41-71: huTFh polypeptide analog of Table 4; sequence not printed; probably p40-71 (KSGDWKSKCFYTTDTECDLTDEIVKDVKQTY; UniProt P13726 73-103, looked up, fragment) | – | – | Inhibition (Percent Inhibition of huTF-initiated coagulation) (factor VII/VIIa [1]; [4]): 25.0%
3 | concanavalin A | – | – | inhibition of TF activity (TF): inhibits TF activity
4 | p50-71: phospholipidated huTFh polypeptide analog of Table 4; sequence not printed; probably p56-71 (FYTTDTECDLTDEIVKDVKQTY; also: phospholipidated (position not given here); UniProt P13726 82-103, looked up, fragment) | – | – | Inhibition (Percent Inhibition of huTF-initiated coagulation) (factor VII/VIIa [1]; phospholipidated peptides, 30 μM): 73.3%
5 | H-DSPVECMGQEKGEFREIFYIIGA-OH [p204-226] | 20 | 0.715 ± 0.042 | –
6 | H-EWEPKPVNQVYT-OH [p24-35, H--EWEPKPVNQVYT--OH] | – | 0.477 ± 0.017 | inhibition at 10 µM (factor VII/VIIa [1]; [5]): 45%; binding to factor VII/VIIa and inhibition of factor X activation (factor VII/VIIa [2]): bind to factor VII/VIIa and inhibit its ability to form a TF:VII/VIIa complex that can activate factor X
7 | H-TKVNVTVEDERTLVRRNNTFLSLRDVFGKDLIYTL-OH [p121-155] | 10 | 0.889 ± 0.067 | inhibition at 10 µM (factor VII/VIIa [1]; [6]): 55%
8 | H-SSSGKKTAKTNTNEFLIDVDKGENYCFSV-OH [p161-189] | ≥ 30 | – | inhibition of huTF-initiated coagulation, dose-response (FIG. 12) (factor VII/VIIa [1]): no substantial inhibition; inhibition at 10 µM (factor VII/VIIa [1]; [6]): 94%
9 | H-SGTTNTVAAYNLTWKSTNFKTILEWEPKPV-OH [p1-30] | 25 | 1.098 ± 0.028 | inhibition at 10 µM (factor VII/VIIa [1]; [6]): 81%
10 | H-YENSPEFTPYLETNLGQPTIQSFEQVGTKV-OH [p94-123] | 20 | 0.818 ± 0.055 | inhibition of huTF-initiated coagulation, dose-response (FIG. 12) (factor VII/VIIa [1]): no substantial inhibition; inhibition at 10 µM (factor VII/VIIa [1]; [6]): 93.7%
11 | H-VFGKDLIYTLYYWKSSSSGKKT-OH [p146-167] | – | 0.004 ± 0.001 | inhibition at 10 µM (factor VII/VIIa [1]; [6]): 80%; binding to factor VII/VIIa and inhibition of factor X activation (factor VII/VIIa [2]): bind to factor VII/VIIa and inhibit its ability to form a TF:VII/VIIa complex that can activate factor X
12 | H-RDVFGKDLIYTLYYWK-OH [p144-159, H--RDVFGKDLIYTLYYWK--OH] | – | 0.507 ± 0.053 | binding to factor VII/VIIa and inhibition of factor X activation (factor VII/VIIa [2]): bind to factor VII/VIIa and inhibit its ability to form a TF:VII/VIIa complex that can activate factor X
13 | p244-263: huTFh polypeptide of Table 10; sequence not printed; probably p245-263 (KCRKAGVGQSWKENSPLNVS; UniProt P13726 276-295, looked up, fragment) | – | 0.619 ± 0.047 | –
14 | H-IYTLYYWKSSSSGKKTAK-OH [p152-169, H--IYTLYYWKSSSSGKKTAK--OH] | – | – | inhibition at 10 µM (factor VII/VIIa [1]; [5]): 25%
15 | p26-40: phospholipidated huTFh polypeptide analog of Table 4; sequence not printed; probably p26-49 (EPKPVNQVYTVQIST; also: phospholipidated (position not given here); UniProt P13726 58-72, looked up, fragment) | – | – | Inhibition (Percent Inhibition of huTF-initiated coagulation) (factor VII/VIIa [1]; [7]): 83.0%
16 | p11-28: huTFh polypeptide; designation represents included residues of FIG. 1; sequence not printed (NLTWKSTNFKTILEWEPK; UniProt P13726 43-60, looked up, fragment) | – | 0.687 ± 0.071 | –
17 | H-EPKPVNQVYTVQISTKSGDWKSKC-OH [p26-49] | – | 0.437 ± 0.020 | binding to factor VII/VIIa and inhibition of factor X activation (factor VII/VIIa [2]): bind to factor VII/VIIa and inhibit its ability to form a TF:VII/VIIa complex that can activate factor X
18 | H-YWKSSSSGKKTAK-OH [p157-169, H--YWKSSSSGKKTAK--OH] | – | 0.389 ± 0.035 | binding to factor VII/VIIa and inhibition of factor X activation (factor VII/VIIa [2]): bind to factor VII/VIIa and inhibit its ability to form a TF:VII/VIIa complex that can activate factor X
19 | activated protein C | – | – | coagulopathic response and lethal effects of LD100 concentrations of E. coli in baboons (baboon TF): prevents the coagulopathic response and lethal effects
20 | p1-18: huTFh polypeptide; designation represents included residues of FIG. 1; sequence not printed (SGTTNTVAAYNLTWKSTN; UniProt P13726 33-50, looked up, fragment) | – | 1.007 ± 0.087 | –
21 | H-LARVFSYPAGNVESTGSAGEPLYENSPEFTPYLC-OH [p72-104] | 25 | 0.781 ± 0.047 | inhibition of huTF-initiated coagulation, dose-response (FIG. 12) (factor VII/VIIa [1]): no substantial inhibition
22 | H--TKSGDWKSKCFYTTDTECDLTDEIVKDVKQTY--OH (H-TKSGDWKSKCFYTTDTECDLTDEIVKDVKQTY-OH; cysteine pairing not given here) [p40-71] | – | 0.814 ± 0.053 | inhibition of huTF-initiated coagulation, dose-response (FIG. 12) (factor VII/VIIa [1]): no substantial inhibition; Inhibition (Percent Inhibition of huTF-initiated coagulation) (factor VII/VIIa [1]; [7]): 65.0%
23 | H-ECDLTDEIVKDVKQTY-OH [p56-71, H--ECDLTDEIVKDVKQTY--OH] | 25 | – | –
24 | p161-190: huTFh polypeptide of Table 10; sequence not printed; probably p161-189 (SSSGKKTAKTNTNEFLIDVDKGENYCFSVQ; UniProt P13726 193-222, looked up, fragment) | – | 0.600 ± 0.023 | –
25 | p40-49: huTFh polypeptide analog of Table 4; sequence not printed; probably p41-49 (TKSGDWKSKC; UniProt P13726 72-81, looked up, fragment) | – | – | Inhibition (Percent Inhibition of huTF-initiated coagulation) (factor VII/VIIa [1]; [4]): 25.0%
